According to US20090214580A1, “Peptide mixtures with immunomodulatory activity” (priority 2004, published 2009):

What was measured:
EAE = conditions: Lewis rats; cited from earlier work
[1] = test system: PBMC from healthy donors and MS patients; assay: T cell proliferation of PBMC, primary and secondary (3H-thymidine); assay type: cell-based, human; conditions: 20 μg/ml; healthy donor and MS patient PBMC; words
Method: FIG. 1: Peptide length and composition affect the stimulatory potential of complex mixtures (CM). The stimulatory capacity of CM ranging in size and composition were tested in PBMC from nine healthy donors in both primary (A,C) and secondary (B,D) proliferations to confirm the specificity of the response. 20 μg/ml of CM or GA were each added to 18 wells and the % of positive wells (those wells with CPM having an SI greater than twice that observed in background/control wells) determined from pooled data from all donors. Figures A and B analyze the contribution of peptide length and Figures C and D the composition or MHC-bias to stimulatory potential. […]
PBMC were isolated from leukocytaphereses and seeded in complete T cell medium (TCM; Iscove's modified Dulbecco's medium [IMDM] containing 2 mM 1-glutamine, 50 μg/ml gentamycin, penicillin-streptomycin 100 U/ml each, and 5% pooled human AB serum) at 2×10^5 cells/well into 96 well U-bottom microtiter plates (Nunc, Naperville, Ill.) and stimulated with CM and GA at 20 μg/ml. After 6 days, 100 μl samples of cell suspension were removed from these plates and transferred to a new microtiter plate to which 1 μCi/well of H^3-thymdidine (Amersham Pharmacia Biotech, Piscataway, N.J.) was added and after 16 hours harvested and counted in a scintillation counter (Microbeta, Wallac, Gatihersburg, Md.). […]

SJL mouse spleen cells = assay: SJL mouse spleen primary proliferative responses to CM; assay type: cell-based; conditions: naive SJL spleen cells; 40, 10, 2.5 μg/ml; words
Method: FIG. 3: SJL mouse spleen primary proliferative responses to CM. Mouse splenic cells were seeded with 3 different doses of CM (40, 10 and 2.5 μg/ml) or GA to test for stimulatory potential of CM of (A) varying length or (B) differential anchor bias. 18 wells were seeded per antigen, and data from 2 experiments were pooled. % positive wells represents the proportion of wells with CPM at a SI greater than 2 compared to background/control wells.
(§1) 6-8 week old female SJL/J mice were purchased from Charles River Laboratories (Wilmington, Mass.). Spleen cells were isolated from anesthetized naïve SJL mice or 10 days after immunization with 200 μg of CM or GA in Complete Freund's Adjuvant (CFA—Difco Laboratories, Detroit, Mich.) on four spots on their back and subsequent aseptic spleen removal and red blood cell lysis using ACK lysis buffer from Biosource (Camarillo, Calif.). […] After six or three days in naïve or immunized mouse experiments respectively, 1 μCi ^3[H]-thymidine (Dupont, Wilmington, Del.) was added overnight and subsequently harvested and counted for thymidine incorporation on a Trilux liquid scintillation counter (Wallac, Gaithersburg, Md.).

[2] = test system: spleen cells from immunized SJL mice; assay: Spleen cells of CM- or GA-immunized SJL mice, response to immunizing antigen; assay type: cell-based, mouse; conditions: spleen cells ten days after immunization; words
Excerpt: (§2) FIG. 4. Cross reactivity of CM-specific lines to MBP. SJL mice were immunized with CM or GA to enhance the number of CM-specific T cells to assess for cross-reactivity to MBP. Spleen cells were removed from mice ten days post immunization and set into culture (6 wells per condition) with the initial immunizing antigen or human MBP at the μg/ml concentrations shown on the X axes. *p<0.05 by Student's t test comparing proliferation in test wells to control wells without antigen.
as §1

whole human MBP = assay: Spleen cells of CM- or GA-immunized SJL mice, cross reactivity to human MBP; assay type: cell-based, mouse; conditions: spleen cells ten days after immunization; words
Excerpt: as §2, §1

PLP139-151-induced EAE = assay: Prophylaxis in PLP139-151-induced EAE; assay type: in vivo, SJL mice
multiple sclerosis = conditions: MS patients; cited from earlier work
HLA-DR2 = HLA-DR2 (Homo sapiens, UniProt P01903+P01911); conditions: cited from earlier work

## EYYKEYYKEYYK
EAE
  effect on EAE: ameliorate EAE

## Glatiramer acetate [GA]
[1]
  stimulatory potential (proliferative responses, % positive wells): most frequently observed
SJL mouse spleen cells
  stimulatory potential (primary proliferative responses): most frequently observed
[2]
  response to immunizing antigen (SI): very high SIs
Whole human MBP
  cross reactivity with whole human MBP: cross reacted
PLP139-151-induced EAE; 500 μg co-injected s.c. with 75 μg PLP 139-151, initial disease course, mean ± SEM
  Cumulative disease score (day 0-24): 10.2 ± 1.6
PLP139-151-induced EAE; 500 μg co-injected s.c. with 75 μg PLP 139-151, remaining disease course, mean ± SEM
  Cumulative disease score (day 24-45): 13.5 ± 3.0
PLP139-151-induced EAE; single 500 μg dose with PLP 139-151
  prophylactic effect on the EAE disease course: significantly reduce the overall disease score
PLP139-151-induced EAE; single 500 μg dose with PLP 139-151, vs PLP alone
  reduction of cumulative disease score throughout the relapse phase: approximately one-third
Multiple sclerosis
  reduction of the relapse rate in MS: about 30%
HLA-DR2
  competition for binding of MBP (85-99) to HLA-DR2: effectively compete

## poly-YEAK
HLA-DR2; compared with poly-YEA, -YEK and -YAK
  binding to DR2 molecules: better binders
